Measured values reported in US11472811B2, “Pyrazolotriazolopyrimidine derivatives as A2A receptor antagonist” (BEIGENE, LTD., priority 2018, dated 2022).

Target: human A2A receptor (A2AR) (Homo sapiens (Human), UniProt P29274)
Assay: Luciferase reporter assay (HEK293-A2AR-luc2p/CRE/Hygro cells)
Format: cell-based
Conditions: 3 nM CGS21680, 5 h incubation
Description: HEK293 cells were maintained in Dulbecco's modified Eagle's medium (DMEM, Gibco) supplemented with 10% fetal bovine serum (FBS, Thermo Scientific), 100 units/mL penicillin (Gibco), and 0.1 mg/mL streptomycin (Gibco) in a humidified 37° C. environment with 5% CO2. Plasmid encoding wild-type human A2A receptor (A2AR) (in pcDNA3.1) was synthesized by Genscript (Nanjing, China). Transfection of the plasmids was performed in 6-well plates with 4×10^5 cells using Lipofectamin 2000 (ThermoFisher Scientific) according to the instruction of the manufacturer. Cell clones that stably express A2AR were established and maintained in the same complete medium as the HEK293 cells in addition of G-418 (Gibico). Expression level of A2AR in each single cell clone was determined using immunoblotting and FACS method. HEK293-A2AR stable cells were then transfected with pGL4.29[luc2P/CRE/Hygro] (Promega) luciferase reporter plasmid for establishing the HEK293-A2AR-luc2p/CRE/Hygro stable cell line.
HEK293-A2AR-luc2p/CRE/Hygro cells were seeded at a density of 5,000 cells/well in DMEM with 1% FBS and 1 U/mL adenosine deaminase (ADA) (Sigma). After 18 h, the cells were treated with 3 nM CGS21680 plus a series dilution of A2AR antagonist, the compounds disclosed herein at the concentration of 0.1˜10000 nM, prepared in DMEM with 1% FBS. After 5 h incubation, the luciferase activity in cells were measured using the Bright-Glo Luciferase Assay System (Promega) according to manufacturer's instructions. The luminescence signal was measured using a PHERAstar FS plate reader (BMG Labtech). […] Maximal luminescence intensity was determined in the presence of 3 nM CGS21680 and was set as 100%. The IC50 value was calculated from a dose dependent inhibition curve across the range of compound concentrations.

human A2A receptor (A2AR), sequence (P29274 whole entry): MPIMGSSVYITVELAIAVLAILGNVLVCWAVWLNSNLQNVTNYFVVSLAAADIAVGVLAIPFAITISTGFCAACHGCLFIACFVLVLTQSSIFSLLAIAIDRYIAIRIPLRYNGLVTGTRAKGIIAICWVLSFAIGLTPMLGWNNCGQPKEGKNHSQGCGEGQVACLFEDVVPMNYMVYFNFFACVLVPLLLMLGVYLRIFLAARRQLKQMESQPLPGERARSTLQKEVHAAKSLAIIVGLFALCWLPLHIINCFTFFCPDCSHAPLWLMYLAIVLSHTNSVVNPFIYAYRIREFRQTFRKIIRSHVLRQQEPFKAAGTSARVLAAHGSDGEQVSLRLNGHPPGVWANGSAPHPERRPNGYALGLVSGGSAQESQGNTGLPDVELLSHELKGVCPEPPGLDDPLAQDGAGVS

Row | SMILES | IC50
1 | CC(C(=O)NCC1(O)CCC1)(c1ccccc1)n1ncc2c1nc(N)n1nc(-c3ccco3)nc21 (stereo not drawn) [Example 71, 2-(5-amino-2-(furan-2-yl)-7H-pyrazolo[4,3-e][1,2,4]triazolo[1,5-c]pyrimidin-7-yl)-N-((1-hydroxycyclobutyl)methyl)-2-phenylpropanamide] | 3.8 nM
2 | CC(C(=O)NCc1ccc(F)cn1)(c1ccccc1)n1ncc2c1nc(N)n1nc(-c3ccco3)nc21 (stereo not drawn) [Example 117, 2-(5-amino-2-(furan-2-yl)-7H-pyrazolo[4,3-e][1,2,4]triazolo[1,5-c]pyrimidin-7-yl)-N-((5-fluoropyridin-2-yl)methyl)-2-phenylpropanamide] | 3.4 nM
3 | CN1CCN(CCNC(=O)[C@@](C)(c2ccccc2)n2ncc3c2nc(N)n2nc(-c4ccco4)nc32)CC1 [Example 147B, (R)-2-(5-amino-2-(furan-2-yl)-7H-pyrazolo[4,3-e][1,2,4]triazolo[1,5-c]pyrimidin-7-yl)-N-(2-(4-methylpiperazin-1-yl)ethyl)-2-phenylpropanamide] | 18.9 nM
4 | C[C@@](C(=O)N[C@H]1CC[C@@H](O)CC1)(c1ccccc1)n1ncc2c1nc(N)n1nc(-c3ccco3)nc21 [Example 76A, (S)-2-(5-amino-2-(furan-2-yl)-7H-pyrazolo[4,3-e][1,2,4]triazolo[1,5-c]pyrimidin-7-yl)-(cis)-N-(4-hydroxycyclohexyl)-2-phenylpropanamide] | 40.4 nM
5 | Nc1nc2c(cnn2C(C(=O)N[C@@H]2CCOc3ccccc32)c2ccccc2)c2nc(-c3ccco3)nn12 (stereo partly drawn) [Example 15, 2-(5-amino-2-(furan-2-yl)-7H-pyrazolo[4,3-e][1,2,4]triazolo[1,5-c]pyrimidin-7-yl)-N—((R)-chroman-4-yl)-2-phenylacetamide] | 7.9 nM
6 | CC(C(=O)NCc1cccc(C2(O)CCC2)n1)(c1ccccc1)n1ncc2c1nc(N)n1nc(-c3ccco3)nc21 (stereo not drawn) [Example 130, 2-(5-amino-2-(furan-2-yl)-7H-pyrazolo[4,3-e][1,2,4]triazolo[1,5-c]pyrimidin-7-yl)-N-((6-(1-hydroxycyclobutyl)pyridin-2-yl)methyl)-2-phenylpropanamide] | 6.9 nM
7 | Cc1ccnc(CNC(=O)[C@@](C)(c2ccccc2)n2ncc3c2nc(N)n2nc(-c4ccco4)nc32)c1 [Example 110B, (R)-2-(5-amino-2-(furan-2-yl)-7H-pyrazolo[4,3-e][1,2,4]triazolo[1,5-c]pyrimidin-7-yl)-N-((4-methylpyridin-2-yl)methyl)-2-phenylpropanamide] | 2.9 nM
8 | CC(C(=O)N[C@H]1C[C@H](O)C1)(c1ccccc1)n1ncc2c1nc(N)n1nc(-c3ccco3)nc21 (relative stereo) [Example 102, 2-(5-amino-2-(furan-2-yl)-7H-pyrazolo[4,3-e][1,2,4]triazolo[1,5-c]pyrimidin-7-yl)-(trans)-N-(3-hydroxycyclobutyl)-2-phenylpropanamide] | 13.3 nM
9 | Cc1cccnc1CNC(=O)C(C)(c1ccccc1)n1ncc2c1nc(N)n1nc(-c3ccco3)nc21 (stereo not drawn) [Example 111, 2-(5-amino-2-(furan-2-yl)-7H-pyrazolo[4,3-e][1,2,4]triazolo[1,5-c]pyrimidin-7-yl)-N-((3-methylpyridin-2-yl)methyl)-2-phenylpropanamide] | 0.6 nM
10 | CC(C(=O)N[C@H]1CCC[C@@H](O)C1)(c1ccccc1)n1ncc2c1nc(N)n1nc(-c3ccco3)nc21 (stereo partly drawn) [Example 123, 2-(5-amino-2-(furan-2-yl)-7H-pyrazolo[4,3-e][1,2,4]triazolo[1,5-c]pyrimidin-7-yl)-N-((1S,3R)-3-hydroxycyclohexyl)-2-phenylpropanamide] | 8.5 nM
11 | CC(C(=O)NCCC1CCOCC1)(c1ccccc1)n1ncc2c1nc(N)n1nc(-c3ccco3)nc21 (stereo not drawn) [Example 73, 2-(5-amino-2-(furan-2-yl)-7H-pyrazolo[4,3-e][1,2,4]triazolo[1,5-c]pyrimidin-7-yl)-2-phenyl-N-(2-(tetrahydro-2H-pyran-4-yl)ethyl)propanamide] | 9.3 nM
12 | CC(C(=O)N[C@@H]1CCC[C@@H]1O)(c1ccccc1)n1ncc2c1nc(N)n1nc(-c3ccco3)nc21 (stereo partly drawn) [Example 48, 2-(5-amino-2-(furan-2-yl)-7H-pyrazolo[4,3-e][1,2,4]triazolo[1,5-c]pyrimidin-7-yl)-N-((1R,2S)-2-hydroxycyclopentyl)-2-phenylpropanamide] | 2.9 nM
13 | CC(C(=O)NC1CCCC(O)C1)(c1ccccc1)n1ncc2c1nc(N)n1nc(-c3ccco3)nc21 (stereo not drawn) [Example 99, 2-(5-amino-2-(furan-2-yl)-7H-pyrazolo[4,3-e][1,2,4]triazolo[1,5-c]pyrimidin-7-yl)-N-(3-hydroxycyclohexyl)-2-phenylpropanamide] | 12 nM
14 | Nc1nc2c(cnn2C(C(=O)NCc2ccc(C(F)(F)F)cc2)c2ccccc2)c2nc(-c3ccco3)nn12 (stereo not drawn) [Example 29, 2-(5-amino-2-(furan-2-yl)-7H-pyrazolo[4,3-e][1,2,4]triazolo[1,5-c]pyrimidin-7-yl)-2-phenyl-N-(4-(trifluoromethyl)benzyl)acetamide] | 1.3 nM
15 | C[C@](C(=O)NCc1ccc(C(F)(F)F)cn1)(c1ccccc1)n1ncc2c1nc(N)n1nc(-c3ccco3)nc21 [Example 142B, (R)-2-(5-amino-2-(furan-2-yl)-7H-pyrazolo[4,3-e][1,2,4]triazolo[1,5-c]pyrimidin-7-yl)-2-phenyl-N-((5-(trifluoromethyl)pyridin-2-yl)methyl)propanamide] | 1 nM
16 | COCCNC(=O)C(C)(c1ccccc1)n1ncc2c1nc(N)n1nc(-c3ccco3)nc21 (stereo not drawn) [Example 39, 2-(5-amino-2-(furan-2-yl)-7H-pyrazolo[4,3-e][1,2,4]triazolo[1,5-c]pyrimidin-7-yl)-N-(2-methoxyethyl)-2-phenylpropanamide] | 7.6 nM
17 | C[C@](C(=O)NC1CCSCC1)(c1ccccc1)n1ncc2c1nc(N)n1nc(-c3ccco3)nc21 [Example 145B, (R)-2-(5-amino-2-(furan-2-yl)-7H-pyrazolo[4,3-e][1,2,4]triazolo[1,5-c]pyrimidin-7-yl)-2-phenyl-N-(tetrahydro-2H-thiopyran-4-yl)propanamide] | 9 nM
18 | C[C@](C(=O)NC1CC[S+]([O-])CC1)(c1ccccc1)n1ncc2c1nc(N)n1nc(-c3ccco3)nc21 (single isomer, unassigned) [Example 146B-2] | 43.9 nM
19 | CC(C(=O)NCC1(O)CCCCC1)(c1ccccc1)n1ncc2c1nc(N)n1nc(-c3ccco3)nc21 (stereo not drawn) [Example 72, 2-(5-amino-2-(furan-2-yl)-7H-pyrazolo[4,3-e][1,2,4]triazolo[1,5-c]pyrimidin-7-yl)-N-((1-hydroxycyclohexyl)methyl)-2-phenylpropanamide] | 7.8 nM
20 | CC(C(=O)NCC1CCCO1)(c1ccccc1)n1ncc2c1nc(N)n1nc(-c3ccco3)nc21 (stereo not drawn) [Example 49, 2-(5-amino-2-(furan-2-yl)-7H-pyrazolo[4,3-e][1,2,4]triazolo[1,5-c]pyrimidin-7-yl)-2-phenyl-N-((tetrahydrofuran-2-yl)methyl)propanamide] | 3.7 nM
21 | CC(C(=O)NC1CCC(O)C1)(c1ccccc1)n1ncc2c1nc(N)n1nc(-c3ccco3)nc21 (stereo not drawn) [Example 36, 2-(5-amino-2-(furan-2-yl)-7H-pyrazolo[4,3-e][1,2,4]triazolo[1,5-c]pyrimidin-7-yl)-N-(3-hydroxycyclopentyl)-2-phenylpropanamide] | 12.9 nM
